{"source": "ChEMBL document CHEMBL3865818", "about": "“4,5-Diaryl-3H-1,2-dithiole-3-thiones and related compounds as combretastatin A-4/oltipraz hybrids: Synthesis, molecular modelling and evaluation as antiproliferative agents and inhibitors of tubulin” (Eur J Med Chem, 2016)", "key": {"[1]": {"experiment": "Cell cycle arrest in human KB cells assessed as accumulation at G2/M-phase at 0.05 uM measured after 12 hrs by propidium iodide staining-based flow cytometry (reference value: 30.19%)", "format": "functional"}, "[2]": {"experiment": "Cell cycle arrest in human KB cells assessed as accumulation at S-phase at 0.1 uM measured after 24 hrs by propidium iodide staining-based flow cytometry (reference value: 16.96%)", "format": "functional"}, "[3]": {"experiment": "Cell cycle arrest in human KB cells assessed as accumulation at G2/M-phase measured after 12 hrs by propidium iodide staining-based flow cytometry (reference value: 30.19%)", "format": "functional"}, "[4]": {"experiment": "Cell cycle arrest in human KB cells assessed as accumulation at S-phase at 0.2 uM measured after 24 hrs by propidium iodide staining-based flow cytometry (reference value: 16.96%)", "format": "functional"}, "[5]": {"experiment": "Cell cycle arrest in human KB cells assessed as accumulation at SubG1-phase measured after 48 hrs by propidium iodide staining-based flow cytometry (reference value: 0.61%)", "format": "functional"}, "[6]": {"experiment": "Cell cycle arrest in human KB cells assessed as accumulation at SubG1-phase at 0.05 uM measured after 24 hrs by propidium iodide staining-based flow cytometry (reference value: 0.76%)", "format": "functional"}, "[7]": {"experiment": "Cell cycle arrest in human KB cells assessed as accumulation at SubG1-phase at 0.05 uM measured after 60 hrs by propidium iodide staining-based flow cytometry (reference value: 1.24%)", "format": "functional"}, "[8]": {"experiment": "Cell cycle arrest in human KB cells assessed as accumulation at SubG1-phase at 0.2 uM measured after 36 hrs by propidium iodide staining-based flow cytometry (reference value: 0.63%)", "format": "functional"}, "[9]": {"experiment": "Cell cycle arrest in human KB cells assessed as accumulation at G2/M-phase at 0.2 uM measured after 36 hrs by propidium iodide staining-based flow cytometry (reference value: 27.34%)", "format": "functional"}, "KB": {"system": "KB", "experiment": "Inhibition of alpha-tubulin in human KB cells assessed as disruption of microtubule formation at 0.2 uM by DAPI staining-based immunofluorescence assay", "format": "cell-based"}, "[10]": {"experiment": "Cell cycle arrest in human KB cells assessed as accumulation at G0/G1-phase at 0.1 uM measured after 36 hrs by propidium iodide staining-based flow cytometry (reference value: 51.51%)", "format": "functional"}, "[11]": {"experiment": "Cell cycle arrest in human KB cells assessed as accumulation at G2/M-phase at 0.2 uM measured after 24 hrs by propidium iodide staining-based flow cytometry (reference value: 28.84%)", "format": "functional"}, "[12]": {"experiment": "Cell cycle arrest in human KB cells assessed as accumulation at SubG1-phase at 0.1 uM measured after 36 hrs by propidium iodide staining-based flow cytometry (reference value: 0.63%)", "format": "functional"}, "[13]": {"experiment": "Cell cycle arrest in human KB cells assessed as accumulation at G0/G1-phase measured after 24 hrs by propidium iodide staining-based flow cytometry (reference value: 48.52%)", "format": "functional"}, "[14]": {"experiment": "Cell cycle arrest in human KB cells assessed as accumulation at SubG1-phase measured after 36 hrs by propidium iodide staining-based flow cytometry (reference value: 0.63%)", "format": "functional"}, "[15]": {"experiment": "Cell cycle arrest in human KB cells assessed as accumulation at G0/G1-phase measured after 12 hrs by propidium iodide staining-based flow cytometry (reference value: 48.26%)", "format": "functional"}, "[16]": {"experiment": "Cell cycle arrest in human KB cells assessed as accumulation at SubG1-phase at 0.05 uM measured after 12 hrs by propidium iodide staining-based flow cytometry (reference value: 1.23%)", "format": "functional"}, "[17]": {"experiment": "Cell cycle arrest in human KB cells assessed as accumulation at G2/M-phase measured after 48 hrs by propidium iodide staining-based flow cytometry (reference value: 23.36%)", "format": "functional"}, "[18]": {"experiment": "Cell cycle arrest in human KB cells assessed as accumulation at G2/M-phase at 0.1 uM measured after 60 hrs by propidium iodide staining-based flow cytometry (reference value: 18.9%)", "format": "functional"}, "[19]": {"experiment": "Cell cycle arrest in human KB cells assessed as accumulation at G2/M-phase at 0.1 uM measured after 24 hrs by propidium iodide staining-based flow cytometry (reference value: 28.84%)", "format": "functional"}, "[20]": {"experiment": "Cell cycle arrest in human KB cells assessed as accumulation at G2/M-phase at 0.1 uM measured after 12 hrs by propidium iodide staining-based flow cytometry (reference value: 30.19%)", "format": "functional"}, "[21]": {"experiment": "Cell cycle arrest in human KB cells assessed as accumulation at SubG1-phase at 0.1 uM measured after 24 hrs by propidium iodide staining-based flow cytometry (reference value: 0.76%)", "format": "functional"}, "[22]": {"experiment": "Cell cycle arrest in human KB cells assessed as accumulation at S-phase at 0.2 uM measured after 48 hrs by propidium iodide staining-based flow cytometry (reference value: 13.32%)", "format": "functional"}, "[23]": {"experiment": "Antiproliferative activity against human KB cells measured after 72 hrs by MTT assay", "format": "functional, cell-based"}, "[24]": {"experiment": "Cell cycle arrest in human KB cells assessed as accumulation at G2/M-phase measured after 60 hrs by propidium iodide staining-based flow cytometry (reference value: 18.9%)", "format": "functional"}, "[25]": {"experiment": "Cell cycle arrest in human KB cells assessed as accumulation at G0/G1-phase at 0.2 uM measured after 12 hrs by propidium iodide staining-based flow cytometry (reference value: 48.26%)", "format": "functional"}, "[26]": {"experiment": "Cell cycle arrest in human KB cells assessed as accumulation at G2/M-phase at 0.1 uM measured after 36 hrs by propidium iodide staining-based flow cytometry (reference value: 27.34%)", "format": "functional"}, "[27]": {"experiment": "Cell cycle arrest in human KB cells assessed as accumulation at G0/G1-phase measured after 48 hrs by propidium iodide staining-based flow cytometry (reference value: 58.26%)", "format": "functional"}, "[28]": {"experiment": "Cell cycle arrest in human KB cells assessed as accumulation at G0/G1-phase at 0.05 uM measured after 12 hrs by propidium iodide staining-based flow cytometry (reference value: 48.26%)", "format": "functional"}, "[29]": {"experiment": "Cell cycle arrest in human KB cells assessed as accumulation at S-phase at 0.1 uM measured after 48 hrs by propidium iodide staining-based flow cytometry (reference value: 13.32%)", "format": "functional"}, "[30]": {"experiment": "Cell cycle arrest in human KB cells assessed as accumulation at SubG1-phase at 0.05 uM measured after 36 hrs by propidium iodide staining-based flow cytometry (reference value: 0.63%)", "format": "functional"}, "[31]": {"experiment": "Cell cycle arrest in human KB cells assessed as accumulation at S-phase at 0.2 uM measured after 12 hrs by propidium iodide staining-based flow cytometry (reference value: 15.5%)", "format": "functional"}, "[32]": {"experiment": "Cell cycle arrest in human KB cells assessed as accumulation at S-phase measured after 48 hrs by propidium iodide staining-based flow cytometry (reference value: 13.32%)", "format": "functional"}, "[33]": {"experiment": "Cell cycle arrest in human KB cells assessed as accumulation at S-phase measured after 60 hrs by propidium iodide staining-based flow cytometry (reference value: 12.66%)", "format": "functional"}, "[34]": {"experiment": "Cell cycle arrest in human KB cells assessed as accumulation at G0/G1-phase at 0.2 uM measured after 36 hrs by propidium iodide staining-based flow cytometry (reference value: 51.51%)", "format": "functional"}, "[35]": {"experiment": "Cell cycle arrest in human KB cells assessed as accumulation at G0/G1-phase measured after 60 hrs by propidium iodide staining-based flow cytometry (reference value: 63.85%)", "format": "functional"}, "[36]": {"experiment": "Cell cycle arrest in human KB cells assessed as accumulation at G0/G1-phase measured after 36 hrs by propidium iodide staining-based flow cytometry (reference value: 51.51%)", "format": "functional"}}, "note": "Calls of active or inactive are those of the source. No cut-off for these calls is given here."}
{"smiles": "COc1ccc(-c2ssc(=O)c2-c2cc(OC)c(OC)c(OC)c2)cc1N", "values": [{"measurement": "Activity", "setting": "[1]", "result": 30.5, "unit": "%"}, {"measurement": "Activity", "setting": "[2]", "result": 25.4, "unit": "%"}, {"measurement": "Activity", "setting": "[3]", "result": 64.4, "unit": "%"}, {"measurement": "Activity", "setting": "[4]", "result": 22.2, "unit": "%"}, {"measurement": "Activity", "setting": "[5]", "result": 56.1, "unit": "%"}, {"measurement": "Activity", "setting": "[6]", "result": 6.04, "unit": "%"}, {"measurement": "Activity", "setting": "[7]", "result": 34.4, "unit": "%"}, {"measurement": "Activity", "setting": "[8]", "result": 33.2, "unit": "%"}, {"measurement": "Activity", "setting": "[9]", "result": 34.7, "unit": "%"}, {"measurement": "Activity", "setting": "KB", "result": "Active"}, {"measurement": "Activity", "setting": "[10]", "result": 25.5, "unit": "%"}, {"measurement": "Activity", "setting": "[11]", "result": 55.8, "unit": "%"}, {"measurement": "Activity", "setting": "[12]", "result": 24.3, "unit": "%"}, {"measurement": "Activity", "setting": "[13]", "result": 6.89, "unit": "%"}, {"measurement": "Activity", "setting": "[14]", "result": 25.8, "unit": "%"}, {"measurement": "Activity", "setting": "[15]", "result": 8.18, "unit": "%"}, {"measurement": "Activity", "setting": "[16]", "result": 7.09, "unit": "%"}, {"measurement": "Activity", "setting": "[17]", "result": 15.5, "unit": "%"}, {"measurement": "Activity", "setting": "[18]", "result": 10, "unit": "%"}, {"measurement": "Activity", "setting": "[19]", "result": 41.8, "unit": "%"}, {"measurement": "Activity", "setting": "[20]", "result": 62.8, "unit": "%"}, {"measurement": "Activity", "setting": "[21]", "result": 16, "unit": "%"}, {"measurement": "Activity", "setting": "[22]", "result": 13.1, "unit": "%"}, {"measurement": "IC50", "setting": "[23]", "result": 60, "unit": "nM"}, {"measurement": "Activity", "setting": "[24]", "result": 15.6, "unit": "%"}, {"measurement": "Activity", "setting": "[25]", "result": 1.63, "unit": "%"}, {"measurement": "Activity", "setting": "[26]", "result": 23.7, "unit": "%"}, {"measurement": "Activity", "setting": "[27]", "result": 11.3, "unit": "%"}, {"measurement": "Activity", "setting": "[28]", "result": 43, "unit": "%"}, {"measurement": "Activity", "setting": "[29]", "result": 15.3, "unit": "%"}, {"measurement": "Activity", "setting": "[30]", "result": 10.1, "unit": "%"}, {"measurement": "Activity", "setting": "[31]", "result": 22.8, "unit": "%"}, {"measurement": "Activity", "setting": "[32]", "result": 12.6, "unit": "%"}, {"measurement": "Activity", "setting": "[33]", "result": 6.78, "unit": "%"}, {"measurement": "Activity", "setting": "[34]", "result": 7.48, "unit": "%"}, {"measurement": "Activity", "setting": "[35]", "result": 6.81, "unit": "%"}, {"measurement": "Activity", "setting": "[36]", "result": 14.4, "unit": "%"}]}
